Our source for the IC50 values is ChEMBL document CHEMBL4480396 (Eur J Med Chem, 2019).

Format in all cases: functional, cell-based
Experiment [1] deals with HepG2. Nature of the experiment: Antiproliferative activity against human HepG2 cells measured after 48 hrs by MTT assay. The following applies: HepG2, 48 h. A general note: Formazan colour is commonly taken as a measure of viable cells.
Experiment [2] relates to PC-3. Nature of the experiment: Antiproliferative activity against human PC3 cells measured after 48 hrs by MTT assay. Conditions: PC-3, 48 h.
Experiment [3] deals with MGC-803. Briefly: Antiproliferative activity against human MGC803 cells measured after 48 hrs by MTT assay. Conditions: MGC-803, 48 h.

For the compound `C#CCOc1ccc2c(C)cc(=O)oc2c1`, the IC50 in experiment [1], in experiment [2] and in experiment [3] was above 80 µM each time.

In the case of `COc1cc2c(c(OC)c1OC)-c1ccc(OC)c(=O)cc1[C@@H](NC(C)=O)CC2` [COLCHICINE], the IC50 was determined as 4.6 µM in experiment [1], 0.59 µM in experiment [2] and 0.27 µM in experiment [3].

For the compound `COc1ccc(CN(C(=O)Cn2cc(COc3ccc4ccc(=O)oc4c3)nn2)c2cc(OC)c(OC)c(OC)c2)cc1`, the IC50 came out at 1.3 µM in experiment [1], 0.86 µM in experiment [2] and 0.18 µM in experiment [3].

For the compound `COc1ccc(CN(C(=O)Cn2cc(CN3c4ccccc4Sc4ccccc43)nn2)c2cc(OC)c(OC)c(OC)c2)cc1`, the IC50 in experiment [1], in experiment [2] and in experiment [3] was above 80 µM each time.

As to `COc1ccc(CN(C(=O)Cn2cc(CSc3nncs3)nn2)c2cc(OC)c(OC)c(OC)c2)cc1`, the IC50 came out at 38.6 µM in experiment [1], 16.5 µM in experiment [2] and 5 µM in experiment [3].

Consider `COc1ccc(CN(C(=O)Cn2cc(CNS(=O)(=O)c3ccc(C)cc3)nn2)c2cc(OC)c(OC)c(OC)c2)cc1`, for which the figures for the IC50 in experiment [1], in experiment [2] and in experiment [3] were 30.5 µM, 12.4 µM and 1.58 µM, respectively.

For `COc1ccc(CN(C(=O)Cn2cc(CNS(=O)(=O)c3ccc(Br)cc3)nn2)c2cc(OC)c(OC)c(OC)c2)cc1`, the IC50 in experiment [1] worked out at 7.37 µM; in experiment [2], 12.5 µM; in experiment [3] it was 0.43 µM.

`COc1ccc(CN(C(=O)Cn2cc(CSc3nc4ccccc4s3)nn2)c2cc(OC)c(OC)c(OC)c2)cc1`: the IC50 in experiment [1] came out at 49.2 µM; in experiment [2], 28.4 µM; in experiment [3], 0.48 µM.

Consider `COc1ccc(CN(C(=O)Cn2cc(CSc3nc4ccccc4o3)nn2)c2cc(OC)c(OC)c(OC)c2)cc1`, for which the IC50 is 15.6 µM in experiment [1], 5.05 µM in experiment [2] and 1.85 µM in experiment [3].

By IC50 is commonly meant the concentration at which inhibition is half-maximal.
